Patent publication US4871774A, “Medical treatment” (The Boots Company PLC, priority 1987, dated 1989)
Where “and” joins values, the source holds several entries; their conditions need not be identical. Identical values can stand only once.

How the values were obtained:
plasma dopamine level = experiment: Dopamine level in the plasma of human subjects; assay type: in vivo; conditions: for Dopamine levels: human plasma, 2 h after administration
From the text: The mean value of domamine in picograms/ml is set out below at days 1, 4 and 7. Eight human subjects who were given placebo tablets provides plasma samples from which the mean control dopamine levels given below were obtained.

[1] = tested on: dopamine reuptake; depletion of brain dopamine; experiment: In vivo inhibition of dopamine reuptake (prevention of α-methyl-m-tyrosine-induced depletion of brain dopamine); design: species or system rat (Sprague-Dawley); conditions: oral, three doses
From the text: An in vivo test for dopamine reuptake inhibition relies on the fact that such reuptake inhibitors can prevent the entry of dopamine-depleting agents into neurons. Depleting agents interfere with the neuronal storage mechanism for dopamine so dopamine leaks into the cytoplasm where it is metabolised by monoamine oxidase. Depleting agents therefore induce a large reduction in brain dopamine levels which can be measured experimentally. Prior treatment with a dopamine reuptake inhibitor reduces the depletion of dopamine levels caused by subsequent administration of a depleting agent such as α-methyl-m-tyrosine.
Male Sprague-Dawley rats (180-220 g: Charles River) were randomly assigned to various treatment groups. […] Thirty minutes later, one vehicle treated group and all the test groups were given an i.p. injection (2 ml/kg) of the depleting agent α-methyl-m-tyrosine (25 mg/kg; Sigma Chemical Co.). […]
Brain samples were thawed and homogenised in 4 volumes of 0.4M perchloric acid containing sodium metabisulphite (0.4 mM) and the internal standard 3,4-dihydroxybenzylamine (0.8 μM). […] Supernatants were removed and their dopamine concentration determined using an HPLC (high pressure liquid chromatography) system with fluorimetric detection.
The percentage prevention (P) of depletion of brain dopamine levels by test compounds is calculated from the formula [formula] […]

[2] = tested on: uptake of radiolabelled dopamine into freshly prepared synaptosomes from rat striatum; experiment: Inhibition of dopamine uptake in vitro by plasma from humans treated with drug (14C-dopamine, rat striatal synaptosomes); assay type: biochemical; conditions: plasma 3 h after 50 mg oral; for % Inhibition of dopamine uptake: hydrochloride monohydrate
Description: (5) Inhibition of dopamine uptake in vitro by plasma from humans treated with drug
The plasma was separated by centrifugation at 2900×g for 20 minutes at room temperature in a Heraeus Christ minicentrifuge and was stored at -20° C. prior to analysis. The samples were thawed in a water bath at 37° C. for 10-15 minutes prior to commencement of the in vitro dopamine uptake assay which was performed as described in (3) above except ^14 C-dopamine was used. The assay was performed twice on plasma from each volunteer.

[3] = tested on: uptake of radiolabelled dopamine into rat striatal synaptosomes; experiment: Inhibition of dopamine uptake in vitro by plasma from drug treated rats (3H-dopamine, rat striatal synaptosomes); assay type: biochemical, rat (CD, Sprague-Dawley); conditions: for % Inhibition of dopamine uptake in Individual Rats: hydrochloride monohydrate; for % Inhibition of dopamine uptake, Mean (±SEM): mean of 4 rats
Description: (3) Inhibition of dopamine uptake in vitro by plasma from drug treated rats
To obtain the synaptosomes, untreated male CD rats (Sprague-Dawley 200-250 g; Charles River) were killed by cervical dislocation, the brains removed and the striata of two or three rats dissected out and placed in ice-cold saline. The pooled tissue was homogenised in 20 volumes of ice-cold 0.32M sucrose in a glass-teflon homogeniser with 0.35 mm clearance. The homogenate was spun at 1500×g for 10 minutes in a refrigerated (4° C.) Heraeus Christ minicentrifuge. The supernatant was transferred into a polypropylene sterilin tube and stored on ice for as short a time as possible prior to use in the radiolabelled dopamine uptake assay.
Control rats were orally administered distilled water. After one hour the rats were killed by CO2 inhalation overdose, the chest cavity opened and blood immediately removed from the heart and mixed with an anticoagulant solution.
The rat blood/anticoagulant mixture was spun at 5750×g for 20 minutes in a Heraeus Christ minicentrifuge at room temperature. The plasma was removed and kept at room temperature for as short a time as possible before analysis in the radiolabelled dopamine uptake assay. The fresh plasma samples from the rat study were initially maintained at 37° C. for 10-15 minutes before starting the assay. 300 μl of each plasma sample was added to six 5 ml polypropylene tubes already containing 50 μl of saline at room temperature. Four of these tubes were incubated at 37° C. to assess active radiolabelled dopamine uptake. The other two tubes were immediately cooled to c.3° C. and maintained at this temperature to account for passive radiolabelled dopamine uptake.
(a) Active uptake of radiolabelled dopamine
To each tube at 37° C. was added 100 μl of fresh striatal synaptosomes, prepared as above. These tubes were then agitated in the water bath at 37° C. for 5 minutes prior to the addition of 50 μl ice-cold ^3 H-dopamine solution (final concentration 1×10^-7 M) (Amersham International). The reaction was stopped after a further 5 minutes of agitation and incubation at 37° C. by removing the tubes from the water bath and immediately adding 4 ml of ice-cold saline. The contents of the tube were then rapidly filtered over Whatman glass fibre (GF/F) filters supported on a Millipore 1225 manifold linked to an Edwards 2-stage vacuum pump. The tubes were rinsed with 2×4 ml of ice-cold saline and this was also rapidly filtered. Finally, each manifold well was washed with 4 ml of ice-cold saline.
(b) Passive uptake of radiolabelled dopamine
To the two tubes maintained at c.3° C. was added 100 μl of fresh striatal synaptosomes followed by 50 μl of ice-cold ^3 H-dopamine solution (final concentration 1×10^-7 M). The "reaction" in these tubes was terminated by the addition of 4 ml ice-cold saline and the samples were then rapidly filtered and washed as described in (a) above.
All filters were placed into glass vials and 10 ml of Packard ES-299 scintillation fluid added. Filters were allowed to solubilise for at least 1 hour before the radioactivity accumulated was assayed by liquid scintillation counting.
(c) Calculation of percentage inhibition of ^3 H-dopamine uptake
The amount of passive uptake of ^3 H-dopamine at c.3° C. (measured in cpm) was subtracted from the amount of active ^3 H-dopamine uptake at 37° C. (measured in cpm) to derive net ^3 H-dopamine uptake. The resulting value was then expressed as a percentage (X) of the net ^3 H-dopamine uptake recorded for control plasma. The latter plasma samples were obtained from distilled water-treated control rats. The percentage inhibition value (X) was calculated using the following formula: [formula]
Mean [±1 standard error of the mean (SEM)] percentage inhibition was then determined for each dose.

[4] = tested on: uptake of dopamine into synaptosomes from rat striata; experiment: Inhibition of dopamine uptake in vitro by plasma from drug treated rats obtained over a period of time after a single 30 mg/kg dose; assay type: biochemical; conditions: for % Inhibition of dopamine uptake - Mean (± SEM): 30 mg/kg oral
Description: (4) Inhibition of dopamine uptake in vitro by plasma from drug treated rats obtained over a period of time after a single 30 mg/kg dose
The percentage inhibition of dopamine uptake was determined in a similar manner to that described in (3) above. […]

[5] = plasma 1 h after 100 mg/kg oral

CC(C)CC(N(C)C)C1(c2ccc(Cl)cc2)CCC1.Cl.O (stereo not shown) [N,N-dimethyl-1-[1-(4-chlorophenyl)cyclobutyl]-3-methylbutylamine hydrochloride monohydrate]
Dopamine levels (plasma dopamine level; Day 1, 30 mg per day, control 122): 254 pg/mL | Dopamine levels (plasma dopamine level; Day 4, 30 mg per day, control 110): 294 pg/mL | Dopamine levels (plasma dopamine level; Day 7, 30 mg per day, control 118): 219 pg/mL | plasma dopamine levels (in words) (plasma dopamine level; human subjects, 30 mg dose): plasma dopamine levels had increased | prevention of brain dopamine depletion (in words) [1]: dose-dependent prevention of brain dopamine depletion | % Inhibition of dopamine uptake, Mean ([2]; Volunteer 1, mean of two assays): 11.6% | % Inhibition of dopamine uptake, Mean ([2]; Volunteer 2, mean of two assays): 8.6% | % Inhibition of dopamine uptake, Mean ([2]; Volunteer 3, mean of two assays): 15.7% | % Inhibition of dopamine uptake ([2]; Volunteer 3, single assays (performed twice)): 13.4% and 17.9% | % Inhibition of dopamine uptake, Mean ([2]; Volunteer 4, mean of two assays): 17.9% | % Inhibition of dopamine uptake, Mean ([2]; Volunteer 5, mean of two assays): 15.7% | % Inhibition of dopamine uptake ([2]; Volunteer 5, single assays (performed twice)): 13.0% and 18.4% | % Inhibition of dopamine uptake, Mean ([2]; Volunteer 6, mean of two assays): 16.1% | mean (±SEM) % inhibition of 14C-dopamine uptake by plasma from the six drug-treated volunteers ([2]; mean of six volunteers): 14.2±1.4% | % Inhibition of dopamine uptake in Individual Rats ([3]; plasma 1 h after 10 mg/kg oral): 33% and 23% and 13% and 17% | % Inhibition of dopamine uptake, Mean (±SEM) ([3]; plasma 1 h after 10 mg/kg oral): 22.8 ± 5.5% | % Inhibition of dopamine uptake in Individual Rats ([3]; plasma 1 h after 30 mg/kg oral): 54% and 35% and 49% and 42% | % Inhibition of dopamine uptake, Mean (±SEM) ([3]; plasma 1 h after 30 mg/kg oral): 45.0 ± 4.1% | % Inhibition of dopamine uptake in Individual Rats [3, 5]: 53% and 59% and 67% and 55% | % Inhibition of dopamine uptake, Mean (±SEM) [3, 5]: 58.5 ± 3.1% | inhibition of radiolabelled dopamine uptake (in words) ([3]; plasma from rats, 10, 30 or 100 mg/kg oral): dose-dependent inhibition of radiolabelled dopamine uptake | % Inhibition of dopamine uptake - Mean (± SEM) ([4]; 1 hr after dosing): 45.0 ± 4.1% | % Inhibition of dopamine uptake - Mean (± SEM) ([4]; 3 hrs after dosing): 63.0 ± 1.7% | % Inhibition of dopamine uptake - Mean (± SEM) ([4]; 8 hrs after dosing): 73.4 ± 3.5% | % Inhibition of dopamine uptake - Mean (± SEM) ([4]; 24 hrs after dosing): 31.5 ± 2.4% | % Inhibition of dopamine uptake - Mean (± SEM) ([4]; 48 hrs after dosing): 19.5 ± 5.2% | % Inhibition of dopamine uptake - Mean (± SEM) ([4]; 72 hrs after dosing): 10.4 ± 1.6% | persistence of inhibition of dopamine uptake by rat plasma (in words) ([4]; single 30 mg/kg oral dose): persists for a considerable period of time after dosing
